One molecule from patent US20110224300A1, “USE OF POTASSIUM 2-(a- HYDROXYPENTYL) BENZOATE IN THE MANUFACTURE OF MEDICAMENTS FOR PREVENTING AND/OR TREATING SENILE [sequence]” (Institute of Mataria Medica, Chinese Academy of Me, priority 2008, published 2011) can be followed below.

Molecules are shown by their SMILES.

Assay [1] has as its system MDA. The assay is described as follows: MDA level of brain tissues from permanent 2-VO rats. Type of assay: in vivo, rat. The following applies: for MDA level in cortex: 21 days. The protocol:
In 10 days after onset of 2-VO, drugs and vehicle were administered orally to rats for 21 days (one time/each day). The spatial learning and memory capability of rats were detected by Morris water maze in the 25-30 days after operation. The Morris water test was commenced at 40 min after drugs treated. The biochemical and pathology assays were conducted later (in 24 h) after behavioral tests.
(§1) The biochemical assays were conducted later (in 24 h) after behavioral testing. Eight rats in each group were anesthetized with ether and sacrificed. The brains were quickly removed and cleaned with ice-cold saline. Then the parietal cortex and hippocampus were isolated. For biochemical analysis, the tissues were weighed and homogenized in ice-cold saline with the proportion of 1:9 (w/v). Homogenization (IKA, Germany) was carried out for 2 min in an ice bath. After the homogenates were centrifuged at 2,000×g for 10 min at 4° C. (Sigma, Germany), the supernatant was used for analytical procedures. The levels of choline acetyltransferase (ChAT) SOD, and MDA activities were determined with commercial colorimetric assay kits (Nanjing Jiancheng Bioengineering Institute, China). The content of protein in the supernatant was determined by Bradford method using BSA as standard.

The test system of assay [2] is cortex and hippocampus neurons of 2-VO rats. Kind of assay: HE staining, neuronal morphology in 2-VO rats. Type of assay: in vivo, rat. The following applies: 21 days. The protocol:
(§2) Four rats in each group were anesthetized with sodium pentobarbital (100 mg/kg, intraperitoneal injection), and perfused transcardially with cold saline, followed by 300 ml of 4% paraformaldehyde in 0.01 M phosphate buffer (pH 7.4). After these procedures, the brains were removed and stored in the 0.01 M phosphate buffer (pH 7.4) with 4% paraformaldehyde and 30% sucrose at 4° C. until fully equilibrated. Then they were postfixed at 4° C., dehydrated and embedded in paraffin blocks. Coronal sections of 8 μm were stained with hematoxylin-eosin and Klüver-Barrera.
HE staining in the cytoplasm and nucleus in different colors, you can clearly see the general shape of the cells. […] Above that, dl-PHPB could protect and care the damage of cortex and hippocampus neurons caused by chronic cerebral hypoperfusion.

For assay [3], the system named is corpus callosum and optic tract of 2-VO rats. The assay is described as follows: Klüver-Barrera staining in 2-VO rats. In kind it is in vivo, rat. The conditions noted are these: for improvement of pathological damage of the corpus callosum, K-B staining: 21 days, rank among doses. As for the experimental part: as §2
KB staining could reflect the morphological changes of neuronal myelin sheath, and the morphological changes of nerve fibers.

The subject of assay [4] is Aβ(25-35)-induced dementia rats. The assay is described as follows: Morris water maze in Aβ(25-35)-induced dementia rats. In kind it is in vivo, Male Wistar rats. The conditions noted are these: Aβ(25-35) rats; for percentage of time in the target quadrant (probe test): vehicle 21.6±1.6%. The protocol:
Subjects were tested in a Morris water maze. This test is based on a standardized assessment of spatial learning ability. The water maze apparatus consisted of a circular, stainless pool (120 cm in diameter, 60 cm in height). It was placed in a dimly lit, sound-proof test room. Multiple distant cues around the room (window, cabinets, furniture) were kept in the same location throughout the experiments. The water was filled to a depth of 40 cm at 25±1° C. and was made opaque by adding milk powder to prevent visualization of the platform. A transparent platform (10 cm diameter) was put 1.5 cm below the surface of the water. The tank was divided into four quadrants with the platform in a fixed position in one quadrant. The subjects were placed into the maze facing the pool wall and were allowed two trials per day, 60 s per trial, to find the hidden platform. If the subject found the platform within the 60 s, it was given a 10-s rest period on the platform between trials. If the pedestal was not located within the time allotted, the subject was placed on to the platform and allowed 10 s until the next trial. The escape latency (time to reach the platform) was used to assess acquisition of the water maze task. Sessions were repeated for five consecutive days. On the sixth day, the platform was removed and the rat was allowed to search for the platform for 60 s (probe test). The time in the platform quadrant and latency time to cross platform location were recorded to measure the spatial learning ability without the influence of chance encounters with the platform. The Morris water maze sessions were recorded with a video camera for offline analysis.
Aβ(25-35)-induced dementia model in 10 months of Male Wistar rats with 600 g B.W. was created by slow injection of 15 nmol (volume of 50) aggregation of Aβ (25-35). Sham-operation group was only injected with PBS (volume of 50). After operation, the animals were injected penicillin 200 000 units for 4 days by intraperitoneal injection.
(§3) Rats were divided into four experimental groups randomly (10 rats/each group): one sham-operated group, one vehicle control group, and two dl-PHPB-treated groups (39, and 129 mg/kg). At 1 days after operation, drugs and vehicle were administered orally to rats for 14 days (one time/each day). The spatial learning and memory abilities of rats were detected by Morris water maze in the 9-12 days after operation. The testing of Morris water was commenced at 40 min after drugs treated. The biochemical and pathology assays conducted later (in 24 h) after behavioral testing.
The navigation test was performed in 9-12 days after icy Aβ (25-35) by the same method as the before. On the thirteenth day, the platform was removed and the rat was allowed to search for the platform for 30 s (probe test). The time in the platform quadrant and latency time to cross platform location were recorded to measure the spatial learning ability without the influence of chance encounters with the platform.

Another assay relates to SOD. The assay is described as follows: SOD activity of brain tissues from Aβ(25-35)-induced dementia rats. Type of assay: in vivo, Male Wistar rats. The conditions noted are these: Aβ(25-35) rats; for SOD activity in the cortex: 2 weeks, vehicle 286.8±18.3. The protocol: as §1, §3
(§4) The methods as described previously.

Assay [5] concerns MDA. The assay is described as follows: MDA level of brain tissues from Aβ(25-35)-induced dementia rats. In kind it is in vivo, Male Wistar rats. The following applies: Aβ(25-35) rats, 2 weeks, vehicle 5.43±0.55. The protocol: as §1
Rats were divided into four experimental groups randomly (10 rats/each group): one sham-operated group, one vehicle control group, and two dl-PHPB-treated groups (39, and 129 mg/kg). At 1 days after operation, drugs and vehicle were administered orally to rats for 14 days (one time/each day). The spatial learning and memory abilities of rats were detected by Morris water maze in the 9-12 days after operation. The testing of Morris water was commenced at 40 min after drugs treated. […]

A further assay deals with Mitochondrial ATPase. Kind of assay: Cortex mitochondrial ATPase activity in SAMP8 mice. The following applies: 160 mg/kg oral, 35 days, vehicle 8.58±0.21, significant. In kind it is in vivo. As for the experimental part:
as §1
SAMP8 were divided into three experimental groups randomly: one vehicle control group, and two dl-PHPB-treated groups (50, and 160 mg/kg). Drugs and vehicle were administered orally to SAMP8 mice for 35 days (one time/each day). The spatial learning and memory abilities of SAMP8 mice were detected by Morris water maze and DTT-2 jumping apparatus in 31-35 days. The testing was commenced at 40 min after drugs treated. The biochemical and pathology assays conducted later (in 24 h) after behavioral testing. […]

Another assay has as its system AChE. Kind of assay: AChE activity of hippocampus from SAMP8 mice. In kind it is in vivo. The following applies: treatment up to 35 days, tendency only. As for the experimental part: SAMP8 were divided into three experimental groups randomly: one vehicle control group, and two dl-PHPB-treated groups (50, and 160 mg/kg). Drugs and vehicle were administered orally to SAMP8 mice for 35 days (one time/each day). The spatial learning and memory abilities of SAMP8 mice were detected by Morris water maze and DTT-2 jumping apparatus in 31-35 days. The testing was commenced at 40 min after drugs treated. The biochemical and pathology assays conducted later (in 24 h) after behavioral testing.
as §4

As for `CCCCC(O)c1ccccc1C(=O)[O-].[K+]` (racemic) [dl-PHPB, Potassium 2-(1-Hydroxypentyl)-benzoate], the “MDA level in cortex” value in the assay on MDA [1] (dl-PHPB 13 mg/kg), in the assay on MDA [1] (dl-PHPB 39 mg/kg) and with MDA [1] (dl-PHPB 129 mg/kg) was “decreased MDA level” throughout. For the same molecule, in the assay with MDA [1] (hippocampus, doses not given), the “MDA level in hippocampus” value is “no significant effects”. Also, the “neuronal morphology, HE staining” value in assay [2] (dl-PHPB 13 mg/kg) was “only minor improve the abnormal shape of cortical neurons”; in assay [2] (dl-PHPB 39 mg/kg), “significantly improve the cortex, hippocampus area CA1 and CA3 neurons form”; in assay [2] (dl-PHPB 129 mg/kg), “improve the cortex and hippocampus CA1 area neuronal morphologic abnormalities”. The “improvement of pathological damage of the corpus callosum, K-B staining” value in assay [3] (dl-PHPB 13 mg/kg) is recorded as “the weakest”; in assay [3] (dl-PHPB 39 mg/kg), “strongest”. In addition, the “pathological changes of the optic tract, K-B staining” value in assay [3] (dl-PHPB 39 mg/kg) was “strong role”; in assay [3] (dose not specified) it was “a certain improvement”. Also, the escape latency entry in assay [4] (39 mg/kg orally, 2nd day of training, P<0.05) is reported as “shorter than sham group”; in assay [4] (39 mg/kg orally, 3rd to 4th days), “shorter than vehicle group”; in assay [4] (129 mg/kg orally, 3rd to 4th days, P<0.05 or P<0.01), “significantly shorter than vehicle group”. Besides, the “percentage of time in the target quadrant (probe test)” value turned out to be 24.6±3.0% in assay [4] (39 mg/kg orally, trend only) and 30.2±2.5% in assay [4] (129 mg/kg orally, sham 32.8±4.0%, p<0.05 vs vehicle). Further, in assay [4] (dose not specified), the “time of the first cross platform (probe test)” value is “shorten trend”. In addition, the “SOD activity in the cortex” value is on record as 238.2±32.7 U/mg protein in the assay with SOD (39 mg/kg oral) and 185.2±21.6 U/mg protein with SOD (129 mg/kg oral, P<0.01). Moreover, in the assay with SOD (hippocampus), the “SOD activity in the hippocampus” value is “not significantly improved”. In addition, the “cortex MDA level” value in the assay with MDA [5] (39 mg/kg oral, P<0.05) is on record as 3.62±0.21 nmol/mg protein; with MDA [5] (129 mg/kg oral, P<0.01), 3.28±0.25 nmol/mg protein. Besides, the “ATPase activity (cortex mitochondria)” value in the assay on Mitochondrial ATPase was determined as 9.82±0.51 U/mg protein. For the same molecule, the “AChE activity in the hippocampus” value in the assay on AChE is “might decrease AChE activity”.
